Key:
[1] = system: large crabgrass; test: Test B pre-/postemergence herbicide test; assay type: in vivo, Digitaria sanguinalis; conditions: for Plant response rating (0 to 100 scale), Crabgrass, Large: 0 is no effect, preemergence
Outline: (§1)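 Herbicidal effect was judged by eye on a 0–100 scale after plants stood 13 to 15 days in the greenhouse following pre- or postemergence treatment with surfactant-containing formulations.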

[2] = system: wheat; test: Test B postemergence herbicide test; assay type: in vivo, Triticum aestivum; design: key to Wheat plant response rating: 0 = no effect, 100 = complete control
Outline: (§2)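 Plants grow to 1- to 4-leaf stage (2–18 cm) for postemergence spraying, or to 2-leaf stage for the paddy test. Formulated compound is applied. Greenhouse holding lasts 13–15 days. Response is scored visually relative to controls, 0 no effect to 100 complete control; a dash means no result.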

[3] = system: cocklebur; test: Test B pre-/postemergence herbicide test; assay type: in vivo, Xanthium strumarium; conditions: for Plant response rating (0 to 100 scale), Cocklebur: 0 is no effect, preemergence
Outline: (§3)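 Response was scored visually 13 to 15 days after treatment against untreated greenhouse controls, 0 meaning no effect and 100 complete control. Formulations (solvent mixture plus surfactant) went onto soil after planting, onto foliage of 1- to 4-leaf plants, and onto 2-leaf plants in a flooded paddy set including rice and barnyardgrass.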

[4] = system: rice; test: Test B flooded paddy test; assay type: in vivo, Oryza sativa; conditions: 1000 g ai/ha, scale 0 to 100 (0 no effect, 100 complete control)
Outline: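 Treated at 2-leaf (paddy) or 1–4-leaf, 2–18 cm (postemergence); greenhouse 13–15 d; visual score vs control, 0 none to 100 complete control; dash = not tested.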

[5] = system: blackgrass; test: Test B postemergence herbicide test; assay type: in vivo, Alopecurus myosuroides
Outline: (§4)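 Visual control ratings, 0–100 versus untreated controls, taken after 13 to 15 days in the greenhouse. Blackgrass received a postemergence spray at the 1- to 4-leaf stage (2–18 cm); ducksalad, umbrella sedge and barnyardgrass were flooded-paddy treated at 2 leaves.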

[6] = system: giant foxtail; test: Test B pre-/postemergence herbicide test; assay type: in vivo, Setaria faberi; conditions: for Plant response rating (0 to 100 scale), Foxtail, Giant: 0 is no effect, preemergence
Outline: as §1

[7] = system: barnyardgrass; test: Test B flooded paddy test; assay type: in vivo, Echinochloa crus-galli; conditions: 1000 g ai/ha, scale 0 to 100 (0 no effect, 100 complete control)
Outline: as §4

[8] = system: barnyardgrass; test: Test B pre-/postemergence herbicide test; assay type: in vivo, Echinochloa crus-galli; conditions: for Plant response rating (0 to 100 scale), Barnyardgrass: 0 is no effect, preemergence
Outline: as §3

[9] = system: Surinam grass; test: Test B pre-/postemergence herbicide test; assay type: in vivo, Urochloa decumbens; conditions: 125 g ai/ha; for Plant response rating (0 to 100 scale), Surinam Grass: 0 is no effect, 100 is complete control, preemergence
Outline: as §1

[10] = system: morningglory; test: Test B pre-/postemergence herbicide test; assay type: in vivo, Ipomoea coccinea; conditions: 125 g ai/ha; for Plant response rating (0 to 100 scale), Morningglory: 0 is no effect, 100 is complete control, preemergence
Outline: as §3

[11] = system: wild oat; test: Test B postemergence herbicide test; assay type: in vivo, Avena fatua; conditions: 125 g ai/ha, visual rating, scale 0 (no effect) to 100 (complete control)
Outline: as §2

[12] = system: pigweed; test: Test B pre-/postemergence herbicide test; assay type: in vivo, Amaranthus retroflexus; conditions: 125 g ai/ha; for Plant response rating (0 to 100 scale), Pigweed: 0 is no effect, 100 is complete control, preemergence
Outline: as §1

[13] = system: velvetleaf; test: Test B pre-/postemergence herbicide test; assay type: in vivo, Abutilon theophrasti; conditions: 125 g ai/ha; for Plant response rating (0 to 100 scale), Velvetleaf: 0 is no effect, 100 is complete control, preemergence
Outline: as §1

[14] = system: corn; test: Test B pre-/postemergence herbicide test; assay type: in vivo, Zea mays; conditions: for Plant response rating (0 to 100 scale), Corn: 0 is no effect, preemergence
Outline: as §1

[15] = system: ducksalad; test: Test B flooded paddy test; assay type: in vivo, Heteranthera limosa; conditions: 1000 g ai/ha, scale 0 to 100 (0 no effect, 100 complete control)
Outline: as §4

[16] = system: lambsquarters; test: Test B pre-/postemergence herbicide test; assay type: in vivo, Chenopodium album; conditions: 125 g ai/ha; for Plant response rating (0 to 100 scale), Lambsquarters: 0 is no effect, 100 is complete control, preemergence
Outline: as §1

[17] = system: small flower umbrella sedge; test: Test B flooded paddy test; assay type: in vivo, Cyperus difformis; conditions: 1000 g ai/ha, scale 0 to 100 (0 no effect, 100 complete control)
Outline: as §4

[18] = 125 g ai/ha, 100 is complete control
[19] = 125 g ai/ha, visual rating, scale 0 (no effect) to 100 (complete control), postemergence
[20] = postemergence, 500 g ai/ha, scale 0 to 100, 0 is no effect, 100 is complete control
[21] = visual rating, scale 0 (no effect) to 100 (complete control), postemergence

CCNC(=O)c1ccc(F)c(NC(=O)c2nn(C(C)(C)C)nc2CC)c1 [Compound 362]
0: Crabgrass, Large plant response rating [1, 19] | Crabgrass, Large plant response rating [1, 20] | Wheat plant response rating [2, 19] | Plant response rating (0 to 100 scale), Cocklebur [3, 18] | Barnyardgrass plant response rating [8, 19] | Barnyardgrass plant response rating [8, 20] | Plant response rating (0 to 100 scale), Morningglory [10] | Plant response rating (0 to 100 scale), Pigweed [12] | Plant response rating (0 to 100 scale), Velvetleaf [13] | Velvetleaf plant response rating [13, 21] | Plant response rating (0 to 100 scale), Corn [14, 18] | Corn plant response rating [14, 19] | Corn plant response rating [14, 20] | Plant response rating (0 to 100 scale), Lambsquarters [16]
90: Ducksalad plant response rating [15] | Sedge, Umbrella plant response rating [17]
30: Wheat plant response rating ([2]; 500 g ai/ha, scale 0 to 100, 0 no effect, 100 complete control, preemergence) | Cocklebur plant response rating [3, 20]
50: Barnyardgrass plant response rating [7]
10: Cocklebur plant response rating [3, 19] | Blackgrass plant response rating [5, 19] | Plant response rating (0 to 100 scale), Foxtail, Giant [6, 18] | Foxtail, Giant plant response rating [6, 19] | Foxtail, Giant plant response rating [6, 20] | Plant response rating (0 to 100 scale), Barnyardgrass [8, 18] | Plant response rating (0 to 100 scale), Surinam Grass [9] | Surinam Grass plant response rating [9, 21] | Morningglory plant response rating [10, 21] | Lambsquarters plant response rating [16, 21]
20: Plant response rating (0 to 100 scale), Crabgrass, Large [1, 18] | Blackgrass plant response rating [5, 20] | Oat, Wild plant response rating ([11]; postemergence) | Pigweed plant response rating [12, 21]
60: Rice plant response rating [4]

CCNC(=O)c1cccc(NC(=O)c2nn(C(C)(C)C)nc2CC)c1 [Compound 365, 2-(1,1-dimethylethyl)-5-ethyl-N-[3-[(ethylamino)carbonyl]phenyl]-2H-1,2,3-triazole-4-carboxamide]
0%: pest or weed control at 125 g/ha ([1]; Digitaria sanguinalis, post-emergence, 125 g ai/ha, visual rating, scale 0 (no effect) to 100 (complete control), read-out: Crabgrass, Large plant response rating) | pest or weed control at 125 g/ha ([8]; Echinochloa crus-galli, post-emergence, 125 g ai/ha, visual rating, scale 0 (no effect) to 100 (complete control), read-out: Barnyardgrass plant response rating) | plant injury at 125 g/ha ([14]; Zea mays, post-emergence, 125 g ai/ha, visual rating, scale 0 (no effect) to 100 (complete control), read-out: Corn plant response rating)
50: Plant response rating (0 to 100 scale), Morningglory [10] | Plant response rating (0 to 100 scale), Velvetleaf [13]
10%: pest or weed control at 500 g/ha ([8]; Echinochloa crus-galli, post-emergence, postemergence, 500 g ai/ha, scale 0 to 100, 0 is no effect, 100 is complete control, read-out: Barnyardgrass plant response rating) | pest or weed control at 125 g/ha ([9]; Urochloa decumbens, post-emergence, visual rating, scale 0 (no effect) to 100 (complete control), read-out: Surinam Grass plant response rating) | pest or weed control at 125 g/ha ([13]; Abutilon theophrasti, post-emergence, 336 h, visual rating, scale 0 (no effect) to 100 (complete control), read-out: Velvetleaf plant response rating)
30%: pest or weed control at 125 g/ha ([11]; Avena fatua, post-emergence, 336 h, read-out: Oat, Wild plant response rating)
10: Plant response rating (0 to 100 scale), Cocklebur [3, 18]
70%: pest or weed control at 500 g/ha ([6]; Setaria faberi, post-emergence, 336 h, postemergence, 500 g ai/ha, scale 0 to 100, 0 is no effect, 100 is complete control, read-out: Foxtail, Giant plant response rating)
80%: pest or weed control at 500 g/ha ([1]; Digitaria sanguinalis, post-emergence, postemergence, 500 g ai/ha, scale 0 to 100, 0 is no effect, 100 is complete control, read-out: Crabgrass, Large plant response rating) | pest or weed control at 125 g/ha ([10]; Ipomoea, post-emergence, 336 h, visual rating, scale 0 (no effect) to 100 (complete control), read-out: Morningglory plant response rating)
40%: pest or weed control at 125 g/ha ([5]; Alopecurus myosuroides, post-emergence, 336 h, 125 g ai/ha, visual rating, scale 0 (no effect) to 100 (complete control), read-out: Blackgrass plant response rating) | pest or weed control at 125 g/ha ([12]; Amaranthus retroflexus, post-emergence, 336 h, visual rating, scale 0 (no effect) to 100 (complete control), read-out: Pigweed plant response rating)
70: Plant response rating (0 to 100 scale), Surinam Grass [9]
60%: pest or weed control at 500 g/ha ([3]; Xanthium strumarium, post-emergence, postemergence, 500 g ai/ha, scale 0 to 100, 0 is no effect, 100 is complete control, read-out: Cocklebur plant response rating)
100: Plant response rating (0 to 100 scale), Crabgrass, Large [1, 18] | Plant response rating (0 to 100 scale), Foxtail, Giant [6, 18] | Plant response rating (0 to 100 scale), Pigweed [12] | Plant response rating (0 to 100 scale), Lambsquarters [16]
90: Plant response rating (0 to 100 scale), Barnyardgrass [8, 18] | Plant response rating (0 to 100 scale), Corn [14, 18]
90%: plant injury at 1000 g/ha ([4]; Oryza sativa, 336 h, read-out: Rice plant response rating) | pest or weed control at 500 g/ha ([5]; Alopecurus myosuroides, post-emergence, 336 h, postemergence, 500 g ai/ha, scale 0 to 100, 0 is no effect, 100 is complete control, read-out: Blackgrass plant response rating) | pest or weed control at 1000 g/ha ([7]; Echinochloa crus-galli, 336 h, read-out: Barnyardgrass plant response rating) | pest or weed control at 1000 g/ha ([15]; Heteranthera limosa, 336 h, read-out: Ducksalad plant response rating) | pest or weed control at 125 g/ha ([16]; Chenopodium album, post-emergence, 336 h, visual rating, scale 0 (no effect) to 100 (complete control), read-out: Lambsquarters plant response rating) | pest or weed control at 1000 g/ha ([17]; Cyperus difformis, 336 h, read-out: Sedge, Umbrella plant response rating)
20%: plant injury at 125 g/ha ([2]; Triticum aestivum, post-emergence, 336 h, 125 g ai/ha, visual rating, scale 0 (no effect) to 100 (complete control), read-out: Wheat plant response rating) | pest or weed control at 125 g/ha ([3]; Xanthium strumarium, post-emergence, 125 g ai/ha, visual rating, scale 0 (no effect) to 100 (complete control), read-out: Cocklebur plant response rating) | pest or weed control at 125 g/ha ([6]; Setaria faberi, post-emergence, 336 h, 125 g ai/ha, visual rating, scale 0 (no effect) to 100 (complete control), read-out: Foxtail, Giant plant response rating) | plant injury at 500 g/ha ([14]; Zea mays, post-emergence, postemergence, 500 g ai/ha, scale 0 to 100, 0 is no effect, 100 is complete control, read-out: Corn plant response rating)
